# Measurements from EP1229025A1, “NOVEL QUINAZOLINE DERIVATIVES” (Japan Energy Corporation, priority 1999, dated 2001).
# How the values were obtained:
# Assay type in all cases: cell-based
# [1] = system: TNF-α production; experiment: TNF-α production inhibiting test using human PBMC (LPS stimulus, ELISA); conditions: LPS 10 ng/ml, 16 hours, ELISA of culture supernatants
# Method: Example 145: TNF-α production inhibiting test using human PBMC (peripheral blood mononuclear cells)
# Preparation of human PBMC
# The blood of a healthy person was taken with a vacuum blood-collecting tube (Nipro neotube) and diluted up to two-fold with physiological saline (Otsuka Pharmaceuticals). To the diluted blood was added 6% dextran T-500 (prepared after dissolution in physiological saline (Otsuka Pharmaceuticals) and sterilization with an autoclave) so as to make a final concentration of 1%. The solution was subjected to tumble mixing and allowed to stand at room temperature for 30 minutes to precipitate the erythrocytes. The supernatant was collected and subjected to centrifugation at 20 °C and at 1,500 rpm for 10 minutes. The cells were suspended in 3 ml of RPMI1640 culture medium (Asahi Technogllas) and overlaid on the solution surface of 3 ml Lymphoprep (NYCOMED). Further, with 1.5 ml of RPMI1640 culture medium being added to the tube which had contained the cell suspension liquid, the cells attached to the tube, which had remained uncollected, were suspended for collection and overlaid on the Lymphoprep previously mentioned. This operation was repeated again. After centrifugation at 20 °C and at 2,000 rpm for 30 minutes, there was collected a fraction of peripheral blood mononuclear cells present in the boundary surface between the Lymphoprep and the RPMI1640 culture medium. The cells were washed twice with 10 ml RPMI1640 culture medium to remove the Lymphoprep and then suspended in a RPMI1640 culture medium added with 10% bovine fetal serum (IRVINE SCIENTIFIC), 100 U/ml penicillin and 100 µg/ml streptomycin (hereinafter referred to as cRPMI1640 culture medium). The number of the cells was measured by Tuerk dying, and the cells, after adjustment to 3 × 10^6 cells/ml, were planted in 100 µl/well on a 96-well plate (FALCON). The cells were cultured at 37 °C under 5%CO2 atmosphere for about 5 hours.
# Induction of TNF-α production by LPS stimulus
# LPS (E.coli 0111:B4, DIFCO), which had been prepared to 10 mg/ml with water and kept at -20, was diluted to 100 µg/ml with cRPMI1640 culture medium and subjected to sterile filtration. The 100 µg/ml LPS was diluted with cRPMI1640 culture medium to prepare 20 ng/ml LPS. A compound to be tested which was dissolved in DMSO at 1,000-fold concentration was diluted to 500-fold with cRPMI1640 culture medium containing 20 ng/ml LPS and added in 100 µl/well to the cells which had been planted on the previously mentioned 96-well plate (final concentration of LPS: 10 ng/ml). For use as the control group, the solutions were made by diluting DMSO of the same volume as in the test compounds with cRPMI1640 culture medium containing 20 ng/ml LPS, and they were added to the cells. These cells were cultured at 37 °C under 5%CO2 atmosphere for 16 hours.
# Determination of TNF-α activity (ELISA method)
# To the 96-well plate the mouse anti-human TNF-α antibody (prepared to 2 µg/ml with Coating buffer*^1) was added so as to make 100 µl/well and allowed to stand at 4 °C overnight. After 5-times washing with Wash buffer*^2 (300µl/well), the Blocking buffer*^3 was added to the solutions, which were allowed to stand 37 °C for 2 hours. The culture supernatants were diluted up to 5-fold in the plate (supernatant 20 µl being added to 80 µl of cRPMI1640 culture medium). Simultaneously, for using for a calibration curve, a series of dilution of recombinant human TNF-α was prepared arid allowed to stand 37 °C for 1 hour. After 5-times washing with Wash buffer (300 µl /well), biotinylated rabbit anti-human TNF-α antibody (prepared to 0.25 µg/ml with Antibody diluent*^4) was added so as to make 100 µl /well and allowed to stand at 37 °C for 1 hour. After 5-times washing with Wash buffer (300 µl /well), Streptavidin-Horseradish peroxidase(prepared to 1:4000 with Antibody diluent) was added to make 100 µl /well and allowed to stand at 37 °C for 15 minutes. […]
# [2] = system: IL-5 production; experiment: IL-5 production inhibiting test in OVA-stimulated spleen cells of immunised mouse (ELISA); conditions: 72 h, spleen cells of OVA-immunised BALB/c-mouse, OVA 0.5 mg/ml, 3 days
# Method: (§1) Example 146: IL-4 and IL-5 production inhibiting test
# (§2) A 6-weeks-old BALB/c-mouse (Nippon Charles River) was bred preparatively for 1 week and given at the day 0 and day 14 intraperitoneal injection of 100 µl PBS to give immunity which PBS contained 0.1 mg/ml of Ovalbumin(OVA) and 40 mg/ml of aluminum hydroxide. At the day 21 the spleen was taken out from the mouse. The spleen was dissected with a pincette in cooled PBS, passed through a mesh and subjected to centrifugation at 4 °C at 1,500 rpm for 5 minutes. The cells was added with 5 ml of 0.2% NaCI to destroy erythrocytes, and then was made isotonic by adding 5 ml of 1.6% of NaCl. After centrifugation at 4 °C, 1,500 rpm for 5 minutes, the cells were washed twice with 10 ml ofRPMI1640 culture medium. The obtained spleen cells were suspended in cRPMI1640 medium, and the number of the cells was measured by Tuerk dying. After being adjusted to 1 × 10^7 cells/ml, the cells were planted in 100 µl/well on a 96-well plate (FALCON). The cells were cultured at 37 °C under 5% CO2 atmosphere for about 4 hours. OVA was prepared to 10 mg/ml with cRPMI1640 culture medium and subjected to sterile filtration. The 10 mg/ml OVA was diluted with cRPMI1640 culture medium to give 1 mg/ml OVA. A compound to be tested which was dissolved in DMSO in at 1,000-fold concentration was diluted up to 500-fold with cRPMI1640 culture medium containing 1 mg/ml OVA and added in 100 µl/well to the cells which had been planted on the previously mentioned 96-well plate (final concentration of OVA: 0.5 mg/ml). As the controls, the solutions were made by diluting DMSO of the same volume as with the test compounds with cRPMI1640 culture medium containing 1 mg/ml OVA, and they were added to the cells. These cells were cultured at 37 °C under 5%CO2 atmosphere for 3 days. IL-4 and IL-5 in the culture supernatants after 3 days were quantitatively determined by ELISA method. IL-4 and IL-5 were quantitatively determined using IL-4 Development Kit (Genzyme Techne) and mouse IL-5 MiniKit (ENDOGEN), respectively. The production inhibiting rates of each tested compound against IL-4 are shown in Table 22, those against IL-5 in Table 23.
# [3] = system: IL-4 production; experiment: IL-4 production inhibiting test in OVA-stimulated spleen cells of immunised mouse (ELISA); conditions: 72 h, spleen cells of OVA-immunised BALB/c-mouse, OVA 0.5 mg/ml, 3 days
# Method: as §1, §2
IC50 [1],IC50 [2],IC50 [3],SMILES
300 nM,1400 nM,200 nM,"CC(C)(C)c1cc(CNc2ncnc3cc(N4CCNCC4)c([N+](=O)[O-])cc23)cc(C(C)(C)C)c1O [Example 131, 4-[(3,5-di-tert-butyl-4-hydroxy)benzylamino]-6-nitro-7-(piperazin-1-yl)quinazoline]"
300 nM,2000 nM,200 nM,"O=[N+]([O-])c1cc2c(NCc3ccccc3F)ncnc2cc1N1CCNCC1 [Example 61, 4-(2-fluorobenzylamino)-6-nitro-7-(piperazin-1-yl)quinazoline]"
300 nM,1400 nM,100 nM,"O=[N+]([O-])c1cc2c(NCc3cccc(F)c3)ncnc2cc1N1CCNCC1 [Example 62, 4-(3-fluorobenzylamino)-6-nitro-7-(piperazin-1-yl)quinazoline]"
80 nM,200 nM,10 nM,"O=[N+]([O-])c1cc2c(NCc3ccc4c(c3)OCO4)ncnc2cc1N1CCNCC1 [Example 31, 4-[3,4-(methylenedioxy)benzylamino]-6-nitro-7-(piperazin-1-yl)quinazoline]"
